Compound	pKa (acidic group)	pKa (basic group)
Cc1c(Cn2cc[nH+]c2)sc2ccc(C(=O)O)cc12	3.82	
O=C([O-])CCc1nc2ccccc2[nH]1	13.1	5.7
O=C(O)C=C=Cc1ccccc1	3.7	
N#Cc1ccc(C(=O)S)cc1	1.42	
CCCCCNCc1ccccc1O		8.65
Oc1c(Cl)cc(Cl)c2cccnc12	7.51	2.89
O=S(=O)([O-])c1ccc(O)c2[nH]ncc12	7.6	
NNC(=O)c1cccc([NH3+])c1		2.57
[NH3+]CC[SeH]	5	
COc1cccc2c1CN(C1CC3CCC(C1)N3Cc1ccccc1)C2=O (centres undefined)		8.68
C[NH+](C)CCc1ccccc1O	8.75	
OCCC[C@@H]1CC[C@@H]2CCCN12		11.5
Cc1nc2ccccc2[nH]1		6.3
O=[PH](O)C([NH2+]Cc1cc[nH+]cc1)c1ccccc1O (centres undefined)	2.35	
O=C([O-])CN(CC(=O)[O-])Cc1ccccc1[O-]		11.8
Cc1cc(C(CC(=O)O)c2ccccc2)ccc1O (centres undefined)	4.67	
Fc1ccc(NC(=S)c2ccccc2)cc1	10.8	
CCSC(=N)c1ccccc1		6.05
C[C@H]1CCCC[C@@H]1N		10.6
O=C1CNC(=O)[C@H](Cc2ccc(O)cc2)N1	9.47	
Oc1ccc2ccccc2c1	9.6	

Compound	pKa (acidic group)	pKa (basic group)
CC(C)Nc1ncnc2[nH]ncc12	11	4.62
Oc1cccc2cccc(O)c12	6.71	
O=Cc1cc(-c2ccccc2)nnc1NCCN1CCOCC1		6.89
CCOC(=O)c1cnc2cc([N+](=O)[O-])ccc2c1[O-]		9.32
Nc1cccc[n+]1O	2.67	
COc1ccc(-c2cnc(-c3ccc(OC)cc3)o2)cc1		1.41
CC(C(O)c1ccccc1)N(C)C (centres undefined)		9.3
C=C(OC)C(=O)O	3.38	
Cc1cc(C)n(-c2ccccn2)n1		1.89
OCCS	9.47	
CCCCc1ccc(C(=O)[O-])nc1		5.7
C[n+]1nc(O)ccc1[O-]	5.65	
CC(C)n1cnc2ccccc21		5.74
CCCc1c(C)[nH][n+](C)c1[O-]	10.5	
CCN(CC)CC[NH+](CC)CC		6.18
CC1=CC(=Nc2ccc(O)cc2)C=C(C)C1=O	8.9	
CC(C)N(CCC(C(N)=O)(c1ccccc1)c1ccccn1)C(C)C (centres undefined)	10.2	
CC[NH+](CC)CCNc1nc(C)cc(Nc2ccc(Cl)cc2)n1		6.69
Cn1cccnc1=N		10.8
NCCCCCc1ccccc1		10.5
Cc1ncsc1C(=O)O	3.54	

Compound	pKa (acidic group)	pKa (basic group)
Cn1c(-c2ccccc2O)[nH+]c2ccccc21	5.76	
C[NH+](C)Cc1ccc(NC(=O)/C=N/O)cc1	8.43	
Cc1ccnc(/N=C/c2ccc([N+](=O)[O-])cc2)n1		3.66
CC/C(N=O)=N/O	5.8	
C=C(C)C(=O)NCCN(C)C		8.54
O=C(c1ccccc1)c1cccc([N+](=O)[O-])c1C(=O)O	2.39	
O=C(O)c1cc2ccccc2o1	2.84	
c1c(CN2CCNCCNCC2)n[nH]c1CN1CCNCCNCC1		11.2
Cc1ncc(CO)c(C)c1O	9.98	5.4
CC/N=C1\C=C(NCC)CC(C)(C)C1		12.1
CCN(CC)CC(=O)Nc1ccc([N+](=O)[O-])cc1		8.05
CCN(C)CC		10.4
CC(=S)NCc1ccccc1	13	
Cc1cccc(/C=N/O)n1	10	
COc1ccc(-c2c(O)c2=O)cc1	2.33	
Nc1ccc2cc3c(ccc4ccccc43)nc2c1		7.42
N[C@H](C(=O)[O-])[C@H](O)C(=O)[O-]		8.75
C[NH2+]CC(=O)NCCc1c[nH]cn1		6.77
CC[C@]12CCCN3CC[C@@]4(c5cccc(OC)c5N[C@H]4CC1)[C@@H]32		8.46
O=C([O-])CNC(=O)c1ccccc1O	8.16	
O=C([O-])CN1CCCCC1		10.3

Compound	pKa (acidic group)	pKa (basic group)
Sc1cccc(Cl)c1	5.76	
CC1CCN(C)C(C)(C)C1 (centres undefined)		10.2
CC(N)CCc1ccccc1 (centres undefined)		9.78
NCCC(=O)N[C@@H](Cc1cnc[nH]1)C(=O)[O-]		9.35
N#CC(C#N)=C(C(C#N)C#N)C(C#N)C#N	2.25	
CC1CNCC[NH2+]1 (centres undefined)		5.46
Cc1cc(/N=N/c2nc3ccccc3s2)c(O)c2ncccc12	9.6	
Nc1cc(N)c2cccnc2c1O	10.8	6.96
O/C(=C\c1ccccn1)c1ccccc1	11.1	4.52
COc1ccc(C2CN2)cc1 (centres undefined)		8.7
CC1(C)OC(=O)C[C@H]2[C@@H](C(=O)[O-])NC[C@H]21		9
CN(C)c1nnn[nH]1	5.92	
CC1CC(C(=O)O)=[N+]([O-])C1(C)C (centres undefined)	2.85	
O=c1ccc(O)ccc1[O-]	10.1	
Cc1cc(C)c(C(C)C)cc1O	10.8	
CC(=O)c1ccccc1C(=O)O	4.15	
C1CCN(CCC[NH+]2CCCC2)C1		8.03
Oc1cc[nH+]c2ccccc12	2.27	
Cc1ccnc([S-])[nH+]1		2.2
C1CNCCNCCNC1		11.7

— the pKa sets of Baltruschat and Czodrowski (2020)
